{"source": "paper PMC3119665", "about": "“A New Drug Design Targeting the Adenosinergic System for Huntington's Disease” (PLoS ONE, 2011)", "key": {"[1]": {"target": "T1, A1 adenosine receptor (Homo sapiens, UniProt P30542)", "T1 construct": "MDS Pharma Services Taiwan", "T1 sequence (P30542 1-326)": "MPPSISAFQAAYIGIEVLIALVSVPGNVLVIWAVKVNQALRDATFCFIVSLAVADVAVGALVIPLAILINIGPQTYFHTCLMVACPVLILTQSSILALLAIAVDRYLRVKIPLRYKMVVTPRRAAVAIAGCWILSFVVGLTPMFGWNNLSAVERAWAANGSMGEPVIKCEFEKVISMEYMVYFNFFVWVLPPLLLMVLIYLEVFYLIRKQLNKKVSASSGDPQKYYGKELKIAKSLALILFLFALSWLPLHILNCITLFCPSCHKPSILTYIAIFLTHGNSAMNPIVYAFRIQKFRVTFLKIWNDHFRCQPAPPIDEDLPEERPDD", "assay": "Radioligand binding assay"}, "[2]": {"target": "T2, Adrenergic α 1A (Rattus norvegicus, UniProt P43140)", "T2 construct": "purchased MDS Pharma Services Taiwan", "T2 sequence (P43140 whole entry)": "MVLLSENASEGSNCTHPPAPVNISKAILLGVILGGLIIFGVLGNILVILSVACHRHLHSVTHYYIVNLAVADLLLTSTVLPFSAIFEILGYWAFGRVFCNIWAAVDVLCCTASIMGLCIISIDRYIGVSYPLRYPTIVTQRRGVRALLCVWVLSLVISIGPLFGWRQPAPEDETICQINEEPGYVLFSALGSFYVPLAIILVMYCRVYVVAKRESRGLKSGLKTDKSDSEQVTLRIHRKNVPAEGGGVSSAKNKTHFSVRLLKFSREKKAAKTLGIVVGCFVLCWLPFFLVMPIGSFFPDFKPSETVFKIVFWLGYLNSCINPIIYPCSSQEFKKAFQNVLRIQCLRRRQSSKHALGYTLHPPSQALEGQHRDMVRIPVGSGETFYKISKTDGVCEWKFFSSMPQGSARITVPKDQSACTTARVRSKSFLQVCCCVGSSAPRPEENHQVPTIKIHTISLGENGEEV", "assay": "Radioligand binding panel (Table S1)", "details": "10 μM T1-11, n 2"}, "[3]": {"target": "T3, Bombesin BB2 (Homo sapiens, UniProt P30550)", "T3 construct": "purchased MDS Pharma Services Taiwan", "T3 sequence (P30550 whole entry)": "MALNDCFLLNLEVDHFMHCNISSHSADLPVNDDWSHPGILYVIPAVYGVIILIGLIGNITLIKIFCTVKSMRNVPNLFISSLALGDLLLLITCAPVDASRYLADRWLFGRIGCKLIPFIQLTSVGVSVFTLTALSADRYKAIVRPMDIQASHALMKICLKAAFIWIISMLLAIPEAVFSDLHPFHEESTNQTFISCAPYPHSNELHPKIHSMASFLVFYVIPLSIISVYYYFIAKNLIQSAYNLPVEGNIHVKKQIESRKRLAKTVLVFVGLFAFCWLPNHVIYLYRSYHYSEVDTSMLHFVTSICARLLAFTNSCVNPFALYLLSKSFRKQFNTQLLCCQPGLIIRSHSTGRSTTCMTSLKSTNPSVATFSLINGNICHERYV", "assay": "Radioligand binding panel (Table S1)", "details": "10 μM T1-11, n 2"}, "[4]": {"target": "T4, Cannabinoid CB1 (Homo sapiens, UniProt P21554)", "T4 construct": "purchased MDS Pharma Services Taiwan", "assay": "Radioligand binding panel (Table S1)", "details": "10 μM T1-11, n 2"}, "[5]": {"target": "T5, Chemokine CCR1 (Homo sapiens, UniProt P32246)", "T5 construct": "purchased MDS Pharma Services Taiwan", "T5 sequence (P32246 whole entry)": "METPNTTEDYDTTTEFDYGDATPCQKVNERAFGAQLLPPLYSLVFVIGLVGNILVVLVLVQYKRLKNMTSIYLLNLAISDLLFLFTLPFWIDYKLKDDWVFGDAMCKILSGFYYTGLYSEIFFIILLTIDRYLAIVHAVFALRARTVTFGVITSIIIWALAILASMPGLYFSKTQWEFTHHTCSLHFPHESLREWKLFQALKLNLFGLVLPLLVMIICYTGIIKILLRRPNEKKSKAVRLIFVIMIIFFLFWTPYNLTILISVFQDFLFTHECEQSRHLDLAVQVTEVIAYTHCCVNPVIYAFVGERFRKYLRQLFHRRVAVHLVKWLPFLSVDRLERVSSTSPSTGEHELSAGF", "assay": "Radioligand binding panel (Table S1)", "details": "10 μM T1-11, n 2"}, "[6]": {"target": "T6, Estrogen ERβ (Homo sapiens, UniProt Q92731)", "T6 construct": "purchased MDS Pharma Services Taiwan", "assay": "Radioligand binding panel (Table S1)", "details": "10 μM T1-11, n 2"}, "[7]": {"target": "T7, Histamine H4 (Homo sapiens, UniProt Q9H3N8)", "T7 construct": "purchased MDS Pharma Services Taiwan", "T7 sequence (Q9H3N8 whole entry)": "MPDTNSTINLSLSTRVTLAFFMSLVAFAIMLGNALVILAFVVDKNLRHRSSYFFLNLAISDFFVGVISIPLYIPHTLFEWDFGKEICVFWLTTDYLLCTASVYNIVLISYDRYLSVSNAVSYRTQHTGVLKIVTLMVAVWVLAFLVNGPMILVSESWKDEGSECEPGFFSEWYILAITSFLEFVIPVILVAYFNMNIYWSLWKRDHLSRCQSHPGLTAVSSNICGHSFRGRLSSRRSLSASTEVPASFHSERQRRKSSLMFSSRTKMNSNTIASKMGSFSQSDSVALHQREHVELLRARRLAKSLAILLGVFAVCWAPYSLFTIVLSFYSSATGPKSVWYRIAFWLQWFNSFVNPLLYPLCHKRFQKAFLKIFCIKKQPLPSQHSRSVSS", "assay": "Radioligand binding panel (Table S1)", "details": "10 μM T1-11, n 2"}, "[8]": {"target": "T8, Leukotriene, Cysteinyl CysLT1 (Homo sapiens, UniProt Q9Y271)", "T8 construct": "purchased MDS Pharma Services Taiwan", "assay": "Radioligand binding panel (Table S1)", "details": "10 μM T1-11, n 2"}, "[9]": {"target": "T9, Muscarinic M1 (Homo sapiens, UniProt P11229)", "T9 construct": "purchased MDS Pharma Services Taiwan", "T9 sequence (P11229 whole entry)": "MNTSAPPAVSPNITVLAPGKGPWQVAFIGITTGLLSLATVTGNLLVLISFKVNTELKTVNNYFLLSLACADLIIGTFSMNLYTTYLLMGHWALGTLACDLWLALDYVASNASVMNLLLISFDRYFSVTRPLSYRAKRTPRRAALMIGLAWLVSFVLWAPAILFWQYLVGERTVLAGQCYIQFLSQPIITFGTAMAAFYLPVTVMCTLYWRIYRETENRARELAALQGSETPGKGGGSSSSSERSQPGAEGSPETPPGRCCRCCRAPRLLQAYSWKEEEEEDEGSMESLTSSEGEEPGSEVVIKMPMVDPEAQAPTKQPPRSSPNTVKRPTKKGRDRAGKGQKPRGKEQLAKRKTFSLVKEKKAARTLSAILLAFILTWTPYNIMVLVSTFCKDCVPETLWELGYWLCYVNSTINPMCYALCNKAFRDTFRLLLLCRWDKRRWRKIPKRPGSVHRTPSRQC", "assay": "Radioligand binding panel (Table S1)", "details": "10 μM T1-11, n 2"}, "[10]": {"target": "T10, Muscarinic M3 (Homo sapiens, UniProt P20309)", "T10 construct": "purchased MDS Pharma Services Taiwan", "assay": "Radioligand binding panel (Table S1)", "details": "10 μM T1-11, n 2"}, "[11]": {"target": "T11, Neuromedin U NMU2 (Homo sapiens, UniProt Q9GZQ4)", "T11 construct": "purchased MDS Pharma Services Taiwan", "T11 sequence (Q9GZQ4 whole entry)": "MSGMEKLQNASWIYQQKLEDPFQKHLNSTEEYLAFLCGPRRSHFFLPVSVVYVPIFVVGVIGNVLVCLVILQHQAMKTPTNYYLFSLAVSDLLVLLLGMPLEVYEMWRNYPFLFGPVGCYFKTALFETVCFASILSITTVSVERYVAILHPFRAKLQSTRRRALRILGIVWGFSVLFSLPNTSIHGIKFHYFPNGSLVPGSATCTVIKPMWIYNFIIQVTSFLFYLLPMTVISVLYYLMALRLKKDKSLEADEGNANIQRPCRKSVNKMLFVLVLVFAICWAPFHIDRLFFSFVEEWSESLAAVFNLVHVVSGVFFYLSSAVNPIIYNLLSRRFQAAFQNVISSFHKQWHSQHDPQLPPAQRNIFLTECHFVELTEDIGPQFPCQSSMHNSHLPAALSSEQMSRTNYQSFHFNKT", "assay": "Radioligand binding panel (Table S1)", "details": "10 μM T1-11, n 2"}, "[12]": {"tested_on": "Neurotensin, Non-Selective", "assay": "Radioligand binding panel (Table S1)", "parameters": "species or system mouse", "details": "10 μM T1-11, n 2"}, "[13]": {"target": "T12, Opiate κ (OP2, KOP) (Homo sapiens, UniProt P41145)", "T12 construct": "purchased MDS Pharma Services Taiwan", "T12 sequence (P41145 whole entry)": "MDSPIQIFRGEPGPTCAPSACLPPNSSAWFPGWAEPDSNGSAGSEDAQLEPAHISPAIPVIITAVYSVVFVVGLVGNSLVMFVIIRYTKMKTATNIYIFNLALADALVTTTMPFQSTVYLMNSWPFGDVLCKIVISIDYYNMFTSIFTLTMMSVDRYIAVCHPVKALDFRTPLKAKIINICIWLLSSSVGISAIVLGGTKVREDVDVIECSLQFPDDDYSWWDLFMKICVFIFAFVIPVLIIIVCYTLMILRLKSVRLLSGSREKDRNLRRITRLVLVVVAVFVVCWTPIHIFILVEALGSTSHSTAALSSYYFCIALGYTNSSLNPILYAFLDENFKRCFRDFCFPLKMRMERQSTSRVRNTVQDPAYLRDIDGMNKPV", "assay": "Radioligand binding panel (Table S1)", "details": "10 μM T1-11, n 2"}, "[14]": {"target": "T13, Serotonin (5-Hydroxytryptamine) 5-HT2B (Homo sapiens, UniProt P41595)", "T13 construct": "purchased MDS Pharma Services Taiwan", "T13 sequence (P41595 whole entry)": "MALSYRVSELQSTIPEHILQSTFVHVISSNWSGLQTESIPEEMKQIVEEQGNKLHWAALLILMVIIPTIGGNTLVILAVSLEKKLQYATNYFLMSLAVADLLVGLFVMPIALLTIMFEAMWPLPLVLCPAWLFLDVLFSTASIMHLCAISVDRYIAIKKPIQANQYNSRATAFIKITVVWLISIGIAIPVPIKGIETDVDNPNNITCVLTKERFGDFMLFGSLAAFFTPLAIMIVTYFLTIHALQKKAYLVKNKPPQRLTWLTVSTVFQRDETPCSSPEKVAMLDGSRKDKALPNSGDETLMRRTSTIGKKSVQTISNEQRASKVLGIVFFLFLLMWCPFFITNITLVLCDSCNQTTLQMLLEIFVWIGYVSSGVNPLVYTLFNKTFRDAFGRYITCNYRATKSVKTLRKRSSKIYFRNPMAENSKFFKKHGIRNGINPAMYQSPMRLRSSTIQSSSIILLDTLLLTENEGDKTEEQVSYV", "assay": "Radioligand binding panel (Table S1)", "details": "10 μM T1-11, n 2"}, "[15]": {"tested_on": "Sodium Channel, Site 2", "assay": "Radioligand binding panel (Table S1)", "parameters": "species or system rat", "details": "10 μM T1-11, n 2"}, "[16]": {"tested_on": "Thyroid Hormone", "assay": "Radioligand binding panel (Table S1)", "parameters": "species or system rat", "details": "10 μM T1-11, n 2"}, "[17]": {"tested_on": "Transporter, Glycin.e", "assay": "Radioligand binding panel (Table S1)", "parameters": "species or system rat", "details": "10 μM T1-11, n 2"}, "[18]": {"target": "T14, Transporter, Norepinephrine (NET) (Homo sapiens, UniProt P23975)", "T14 construct": "purchased MDS Pharma Services Taiwan", "T14 sequence (P23975 whole entry)": "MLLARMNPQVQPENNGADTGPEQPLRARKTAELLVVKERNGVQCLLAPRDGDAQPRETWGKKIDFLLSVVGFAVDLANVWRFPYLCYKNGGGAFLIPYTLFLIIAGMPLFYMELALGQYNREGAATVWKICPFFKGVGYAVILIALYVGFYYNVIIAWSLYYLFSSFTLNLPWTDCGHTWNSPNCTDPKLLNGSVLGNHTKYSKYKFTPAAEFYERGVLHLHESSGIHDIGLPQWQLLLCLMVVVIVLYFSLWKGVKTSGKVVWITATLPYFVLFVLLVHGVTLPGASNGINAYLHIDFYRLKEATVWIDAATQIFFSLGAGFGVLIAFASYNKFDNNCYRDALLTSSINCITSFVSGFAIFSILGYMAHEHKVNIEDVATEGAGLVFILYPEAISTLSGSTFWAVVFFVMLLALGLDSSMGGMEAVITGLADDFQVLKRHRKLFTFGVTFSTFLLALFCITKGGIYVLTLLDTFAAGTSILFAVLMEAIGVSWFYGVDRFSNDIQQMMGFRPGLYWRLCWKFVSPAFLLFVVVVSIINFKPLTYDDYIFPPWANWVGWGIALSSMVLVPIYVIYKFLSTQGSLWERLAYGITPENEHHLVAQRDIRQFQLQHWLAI", "assay": "Radioligand binding panel (Table S1)", "details": "10 μM T1-11, n 2"}, "[19]": {"target": "T15, Vasopressin V1B (Homo sapiens, UniProt P47901)", "T15 construct": "purchased MDS Pharma Services Taiwan", "assay": "Radioligand binding panel (Table S1)", "details": "10 μM T1-11, n 2"}, "[20]": {"target": "T16, Vitamin D3 (Homo sapiens, UniProt P11473)", "T16 construct": "purchased MDS Pharma Services Taiwan", "T16 sequence (P11473 whole entry)": "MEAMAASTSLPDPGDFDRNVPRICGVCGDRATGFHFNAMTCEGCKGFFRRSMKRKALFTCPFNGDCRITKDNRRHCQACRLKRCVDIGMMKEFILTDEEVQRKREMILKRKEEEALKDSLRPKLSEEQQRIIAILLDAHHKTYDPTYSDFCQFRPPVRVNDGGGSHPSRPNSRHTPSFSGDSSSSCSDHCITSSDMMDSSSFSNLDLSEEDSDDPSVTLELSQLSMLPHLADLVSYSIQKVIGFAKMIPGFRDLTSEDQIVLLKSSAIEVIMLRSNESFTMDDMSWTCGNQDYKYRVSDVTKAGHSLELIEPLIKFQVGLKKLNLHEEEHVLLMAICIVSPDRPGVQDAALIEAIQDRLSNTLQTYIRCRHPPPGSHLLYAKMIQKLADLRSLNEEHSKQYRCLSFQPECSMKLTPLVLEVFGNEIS", "assay": "Radioligand binding panel (Table S1)", "details": "10 μM T1-11, n 2"}, "[21]": {"target": "T17, adenosine transporter (ENT1) (Rattus norvegicus, UniProt O54698)", "T17 construct": "endogenous in cells; host or cells: PC12", "T17 sequence (O54698 whole entry)": "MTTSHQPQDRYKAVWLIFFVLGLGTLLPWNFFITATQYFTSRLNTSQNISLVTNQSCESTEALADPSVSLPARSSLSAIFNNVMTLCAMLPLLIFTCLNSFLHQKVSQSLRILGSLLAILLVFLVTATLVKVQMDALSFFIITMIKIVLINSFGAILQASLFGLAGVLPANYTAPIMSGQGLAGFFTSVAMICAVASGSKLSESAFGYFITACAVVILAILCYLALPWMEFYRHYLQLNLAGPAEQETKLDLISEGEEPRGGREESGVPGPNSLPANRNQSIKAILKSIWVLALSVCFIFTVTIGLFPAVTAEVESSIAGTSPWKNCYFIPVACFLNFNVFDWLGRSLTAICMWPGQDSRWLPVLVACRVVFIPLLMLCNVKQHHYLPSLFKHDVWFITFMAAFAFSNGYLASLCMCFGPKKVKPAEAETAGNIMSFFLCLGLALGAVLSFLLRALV", "assay": "Adenosine uptake by PC12 cells", "assay_type": "cell-based", "procedure": "For adenosine uptake of PC12, cells were seeded approximately 16 h before each uptake assay at ∼2×10^5 cells per well in 24-well plates coated with poly-L-lysine. To perform adenosine uptake assays, cells were washed with Krebs Ringer-Henseleit buffer [125 mM NaCl, 4.8 mM KCl, 1.3 mM CaCl2, 1.2 mM MgSO4, 1.2 mM KH2PO4, 5.6 mM glucose, 10 µM pargyline, and 10 mM HEPES (pH 7.2)] and incubated in the same buffer for 10 min at 37°C in the presence or absence of the indicated reagent(s). Adenosine uptake was initiated by adding [^3H]adenosine at the indicated concentration (0.5 µCi/mmol) at 37°C. At the end of the incubation, cells were placed on ice, washed twice with ice-cold Krebs Ringer-Henseleit buffer to remove free [^3H]adenosine, lysed with 1% Triton X-100, and added to scintillation vials to count the radioactivity. Non-specific uptake was determined as the uptake performed in the presence of 100 µM adenosine, and was subtracted from the total adenosine uptake."}, "[22]": {"tested_on": "R6/2 mice", "assay": "In vivo 3D MRI imaging of brain atrophy in R6/2 mice", "details": "0.05 mg/ml in drinking water, five weeks", "procedure": "Supplementary file pone.0020934.s005.tif: Figure S5 Effect of T1-11 on the shorten lifespan and enlarged ventricle of R6/2 mice. Animals were given the vehicle (1% DMSO; CON) or T1-11 (0.05 mg/ml)-containing drinking water from the age of 7 weeks. (A) Survival was assessed. Specific comparison to R6/2 mice treated with the vehicle (p = 0.306; Mantel-Cox test). (B) Five weeks after T1-11 treatment, 3D-lMRI was performed to determine the ventricle-to-brain ratio of the indicated animals as described. * p<0.05. (TIF) Click here for additional data file."}, "[23]": {"details": "n.s. = not significant, no significant binding at 10 µM"}}, "data": [{"smiles": "OC[C@H]1O[C@@H](n2cnc3c(NCc4ccc(O)cc4)ncnc32)[C@H](O)[C@@H]1O", "note": "[T1-11, N ^6-(4-hydroxybenzyl)adenine riboside]", "values": [{"measurement": "inhibition at 10 µM", "setting": "[1]; 10 μM T1-11, n 2", "result": 23, "unit": "%"}, {"measurement": "IC50", "setting": "[1]; [23]", "result": "n.s."}, {"measurement": "Ki", "setting": "[1]; [23]", "result": "n.s."}, {"measurement": "inhibition at 10 µM", "setting": "[2]", "result": -14, "unit": "%"}, {"measurement": "inhibition at 10 µM", "setting": "[3]", "result": 3, "unit": "%"}, {"measurement": "inhibition at 10 µM", "setting": "[4]", "result": -7, "unit": "%"}, {"measurement": "inhibition at 10 µM", "setting": "[5]", "result": -3, "unit": "%"}, {"measurement": "inhibition at 10 µM", "setting": "[6]", "result": 40, "unit": "%"}, {"measurement": "inhibition at 10 µM", "setting": "[7]", "result": 8, "unit": "%"}, {"measurement": "inhibition at 10 µM", "setting": "[8]", "result": -4, "unit": "%"}, {"measurement": "inhibition at 10 µM", "setting": "[9]", "result": -1, "unit": "%"}, {"measurement": "inhibition at 10 µM", "setting": "[10]", "result": -6, "unit": "%"}, {"measurement": "inhibition at 10 µM", "setting": "[11]", "result": 5, "unit": "%"}, {"measurement": "% Inhibition", "setting": "[12]", "result": 15, "unit": "%"}, {"measurement": "inhibition at 10 µM", "setting": "[13]", "result": 6, "unit": "%"}, {"measurement": "inhibition at 10 µM", "setting": "[14]", "result": 5, "unit": "%"}, {"measurement": "% Inhibition", "setting": "[15]", "result": 3, "unit": "%"}, {"measurement": "% Inhibition", "setting": "[16]", "result": -9, "unit": "%"}, {"measurement": "% Inhibition", "setting": "[17]", "result": 1, "unit": "%"}, {"measurement": "inhibition at 10 µM", "setting": "[18]", "result": 6, "unit": "%"}, {"measurement": "inhibition at 10 µM", "setting": "[19]", "result": -18, "unit": "%"}, {"measurement": "inhibition at 10 µM", "setting": "[20]", "result": 6, "unit": "%"}, {"measurement": "Function", "setting": "[21]; Adenosine transporter (ENT1), suppressed the uptake of adenosine", "result": "inhibitor"}, {"measurement": "Inhibition of adenosine uptake", "setting": "[21]; PC12 cells", "result": "inhibited adenosine uptake by PC12 cells in a dose-dependent manner"}, {"measurement": "Brain atrophy (3D MRI)", "setting": "[22]", "result": "slightly ameliorated the brain atrophy of R6/2 mice but the improvement did not reach statistic significance"}]}]}
